≈ marks a conversion by molar mass, not a printed value.
How the values were obtained:
[1] = Equilibrium solubility determination in liquid vehicle (HPLC); format: physicochemical; conditions: 40 °C, thermodynamic from solid; guaifenesin in liquid vehicle, 40° for two days, n=3
Experimental: The objective of this example was to determine the […] using “HPLC protocol”. About 500 mg of guaifenesin was added into 20 ml of a liquid vehicle. The suspend solution were then shaken and then placed at 40° for two days. The supernatant was then filtered off using a syringe with a 0.45 μm filter, and diluted so that the absorbencies fell within the UV (25-fold dilution). The diluted clear solutions were equilibrium solubility samples, termed as “samples” in the “HPLC protocol’. The “HPLC protocol” was then followed (See below).
A 20 mL of stock solution of the drug was prepared in DI water at a concentration of 1 mg/mL. The solution was left at room temperature for 5 min to get the drug dissolved. The stock solution was appropriately diluted to get several concentrations ranging from 0.1 mg/mL to 1 mg/mL (See FIG. 1). Samples were prepared by appropriately diluting the samples collected using “USP dissolution protocol” to ensure that the drug concentration level falls within the range of the standard curve (e.g., 2× dilution).
HPLC was prepared by first washing the column with the wash buffer (acetonitrile:water 50:50 (v/v)) for 10 min. […]

[2] = cited from earlier work

For `COc1ccccc1OCC(O)CO` (centres unmarked) [Guaifenesin, 3-(2-methoxyphenoxy)-1,2-propanediol], the solubility thermodynamic at 2 days [1] is given as 9590 ± 340 µg/mL (≈ 48.4 mM) and the water solubility [2] is given as “highly water soluble”.

— patent US20130149383A1, “SUSTAINED RELEASE PARTICLE FORMULATIONS OF GUAIFENESIN” (priority 2011, published 2013)
